Experimental data as given in US20140011772A1, “COMPOSITIONS AND METHODS FOR TREATING CONDITIONS ASSOCIATED WITH NEURONAL DYSFUNCTION” (NORTHWESTERN UNIVERSITY, priority 2009, published 2014).
“Also recorded” adds a separate entry of the source.

Columns and labels:
[1] = tested on: CA1 hippocampal pyramidal neurons; assay: Whole cell current-clamp recordings, firing upon depolarizing current injection; type: cell-based, rat; conditions: FFA 0.2 mM
Description: (A) Current clamp recordings obtained (at 32-33° C.) from a CA1 hippocampal neuron in response to depolarizing current injection (150 pA, 1 s, bottom) in control (top trace) and in the presence of FFA (200 μM, middle). (B) Firing frequency in response to a series of current injections (1 s, 30 pA steps) in control and in FFA.
(§1) Electrophysiological recordings: Slices were visualized with an Axioskop 2FS (Zeiss) upright microscope with a water-immersion 60× objective (0.9 NA, Olympus). For whole cell current-clamp recordings, the bath solution contained kynurenic acid (2 mM) and picrotoxin (0.1 mM) to block fast synaptic transmission, and pipettes were filled with internal solution consisting of: 140K-gluconate, 8 mM NaCl, 2 mM MgCl2, 1 mM EGTA, 2 mM Na2ATP 2, 0.1 mM NaGTP, 10 mM HEPES, pH 7.3 with KOH.
The effect of FFA on burst and tonic firing of hippocampal pyramidal neurons was examined during development of embodiments of the present invention (FIG. 13). Recordings were obtained in the presence of kynurenic acid (2 mM) and picrotoxin (0.1 mM) to block fast synaptic transmission. […] For a 150 pA depolarizing current pulse the firing frequency decreased from 21.7±1.82 Hz in control conditions to 1.87±0.61 Hz in FFA (FIG. 13A,B).

SNI rats = assay: Von Frey pain thresholds in the spared nerve injury (SNI) model of chronic neuropathic pain; type: in vivo, rat; conditions: for analgesic effect: 10 mg/kg in ethanol, oral; for analgesic effect / effect on pain threshold: 10 mg/kg; for effect on pain threshold: 10 mg/kg oral, both paws / non-operative paw
Description: Von Frey thresholds (a standard measure of pain sensitivity) were measured on the operated paw (left panel) and on the contralateral paw (right panel) in adult rats. 4 animals received the drug (10 mg/kg oral administration), and 4 animals the vehicle only. […] Note the fast onset of the effect, which may be very important for clinical use.
Chronic pain constitutes a primary reason driving people to seek health care. Pain was has been described as “epidemic” by the American Academy of Pain Management (American Pain Society, 1999): 50 million Americans are partially or totally disabled by pain. […] In particular, the spared nerve injury model (SNI), a reliable animal model of chronic neuropathic pain, was used to test the effect of oral administration of FFA. Control experiments were performed administrating the vehicle only. […] KCNK channels regulate neuronal excitability by regulating membrane potential, input resistance and synaptic gain (see, e.g., Taverna S, et al., 2005, J Neurosci Oct. 5; 25(40):9162-70; Meuth S G, et al., 2003 J Neurosci. Jul. 23; 23(16):6460-9; each herein incorporated by reference in their entireties).

[2] = tested on: voltage-gated sodium channels of hippocampal CA1 pyramidal neurons; assay: Voltage-clamp nucleated patch recordings of voltage-gated sodium currents in CA1 pyramidal cells; type: cell-based, rat
Description: To study the gating properties of the sodium channels, voltage-clamp recordings were performed in the nucleated patch configuration, which allows almost ideal voltage clamp, even for fast sodium currents (28). Recordings were performed at 24-25° C. using an Axopatch 200B (Axon Instruments) patch-clamp amplifier. Data were sampled at 20 kHz and filtered at 10 kHz. Patch pipettes had resistance of 2.5-4 MΩ (in working solution) and were pulled from Corning #0010 lead glass (WPI) or borosilicate 0.4 mm-walled glass (Dagan). The internal solution was CsCl-based and contained: 140 mM CsCl, 10 mM NaCl, 2 mM MgCl2, 10 mM EGTA, 2 mM Na2ATP, 0.1 mM NaGTP, 10 mM HEPES 10, pH 7.3 with CsOH.
Capacitive transients were reduced by wrapping the pipettes in parafilm and compensated using the fast compensation circuitry of the amplifier. The whole-cell configuration was obtained and the pyramidal identity of cells was quickly confirmed by presence of a sag in the membrane potential in response to a hyperpolarizing current injection. The pipette was then slowly withdrawn while applying a constant negative pressure (−90 to −130 mbar). After excision, patches were held at −90 mV with a small pressure (−15 to −20 mbar). Sodium currents were then obtained by offline digital subtraction of traces in TTX from control traces.
Drugs were applied to the patches by using a multi-barrel system consisting of 4 glass capillaries (1.5 mm ID) glued together and connected to a syringe pump (WPIL). The patch-pipette carrying the nucleated patch was inserted into each of the pipes, each containing a different extracellular solution. The system ensures that the solution speed is the same in each barrel. For these recordings, the extracellular solution consisted of HEPES-buffered ACSF: 138 mM NaCl, 10 mM HEPES, 2.5 mM KCl, 2 mM CaCl2, 1 mM MgCl2 and 25 mM glucose (pH 7.3), 50 μM CdCl2, 10 mM TEA, and the drugs of interest.
The voltage-dependence of activation was fit with a Boltzmann function f(V)=1/(1+exp(−(V−V1/2)/k)) raised to the third power, where V1/2 is the voltage at which the activation is half-maximal, and k is the slope factor. The voltage-dependence of inactivation was similarly determined using a Boltzmann function, f(V)=1/(1+exp ((V−V1/2)/k)). The time course of recovery from inactivation was fit with a bi-exponential equation of the form, f(t)=1-(A1 exp(−t/τ) +A2 exp(−t/τ2)), yielding two time constants (τ) and relative contribution (A).
Voltage-gated sodium currents were recorded in nucleated patches from CA1 pyramidal cells from 11- to 20-day-old rats. FFA was tested at 0.2 mM, a concentration similar to that used as Ican blocker (0.5 mM, (32) and as two-pore potassium channels opener (0.1 mM, (40)).
The effect of FFA on the amplitude of sodium currents recorded in nucleated patches was investigated using a 30 ms step (to 10 mV) from −70 mV (close to the resting potential of hippocampal pyramidal neurons). 200 μM FFA blocked 34% of the sodium current (FIG. 7). The mechanism of action of FFA on sodium channels was characterized in detail. Even with a cesium-based intracellular solution and in the presence of extracellular TEA and cadmium some contaminating currents could often still be detected in pyramidal cell nucleated patches; therefore analysis was performed on TTX-subtracted traces only. TTX-sensitive current data for the control and the FFA were obtained from different patches.

[3] = tested on: CA1 pyramidal neurons in 4-AP bathed slices; assay: 4-AP induced burst firing, whole-cell current clamp in 4-AP bathed slices; type: cell-based, rat
Description: The trace segments between dashed lines are shown on an expanded time scale (insets) to resolve bursts. (B) Firing frequency in response to depolarizing current injections. (C) Interspike interval ratio (ISI) against different current injections. For each current step, the ISI ratio was obtained dividing the interval between the first two spikes by the mean interspike interval. Recordings were obtained at 24-25° C.
as §1
Experiments were conducted during development of embodiments of the present invention to examine the inhibitory effect of FFA on burst firing. All CA1 pyramidal cells show robust burst firing in the presence of 4-Aminopyridine (4-AP), a potassium channel blocker. Whole-cell current clamp recordings were obtained from CA1 pyramidal neurons in 4-AP bathed slices. These recordings were also performed at 32-33° C. and in the presence of kynurenic acid and picrotoxin.

[4] = tested on: epileptiform discharges in 4AP treated rat hippocampal slices; assay: 4AP-induced epileptiform discharges, extracellular recordings from the CA1 area of hippocampal slices; type: cell-based
Description: A, extracellular recordings from the CA1 area of a rat hippocampal slices in which epileptic-like activity was induced by bath application of 4AP (50 μM). […] B, in another 4AP treated slice, the effects of different concentrations of FFA were tested.
Similar pathophysiologies exist for epilepsy and various chronic pain disorders (see, e.g., Pappagallo M (2003) Clin Ther. 25:2506-38; herein incorporated by reference in its entirety). […] Epileptic discharges were induced in a slice of rodent hippocampal tissue by bath application of the voltage-gated potassium channel blocker 4-aminopyridine (4AP) (see, e.g., Lopantsev V, Avoli M. (1998) J Physiol. 509:785-96; Brückner C, et al., Neurosci Lett. 268:163-5; each herein incorporated by reference in their entireties). […] The effect of flufenamic acid on hippocampal neurons, for example, involves induction of neuronal hyperpolarization by activating a background potassium conductance, and a reduction of neuronal excitability by inhibition of the voltage-gated sodium current.
Hippocampal brain slices: 11- to 20-day-old Long-Evans rats were anesthetized with isoflurane and killed by decapitation. The brain was removed from the skull in ice-cold artificial cerebrospinal fluid (ACSF), containing: 125 mM NaCl, 25 mM NaHCO3, 2.5 mM KCl, 1.25 mM NaH2PO4, 1.8 mM CaCl2, 1 mM MgCl2 and 2 mM 5 glucose, bubbled with 95% O2 and 5% CO2 (pH 7.4). Transverse hippocampal slices (300 μm thick) were cut using a vibroslicer (Dosaka) and stored in a solution containing: 87 mM NaCl, 25 mM NaHCO3, 2.5 mM KCl, 1.25 mM NaH2PO4, 0.5 mM CaCl2, 7 mM MgCl2, 75 mM sucrose and 25 mM glucose, bubbled with 95% O2 and 5% CO2; slices were kept at 35° C. for 15-20 minutes and subsequently at 24-25° C.

[5] = FIG. 5: 100 ms pre-pulses, 30 ms test pulse to 0 mV, 2 nucleated patches

O=C(O)c1ccccc1Nc1cccc(C(F)(F)F)c1 [FFA, 2-[[3-(trifluoromethyl)phenyl]amino]benzoic acid]
firing frequency ([1]; 150 pA, 1 s depolarizing current pulse, kynurenic acid and picrotoxin): 1.87±0.61 Hz
effect on number of action potentials / repetitive firing ([1]; 1 s-long depolarizing current injection): strongly decreased the number of action potentials; also recorded: effectively decreases repetitive firing
analgesic effect (SNI rats): rapid and potent analgesic effect
analgesic effect (SNI rats; listed as flufenamic acid): potent analgesic effect
increase of Von Frey threshold on the injured paw (SNI rats; 10 mg/kg oral administration, operated paw): more than 10 times
effect on pain threshold (SNI rats): significantly increased the pain threshold in the non-operative paw
effect on pain threshold (SNI rats; listed as flufenamic acid): increased pain threshold in both paws
Na+ channel activation slope factor (k/3) ([2]; 200 μM FFA): 5.6±0.27 mV
block of the sodium current ([2]; 200 μM FFA, 30 ms step from −70 mV): 34%
mean peak Na+ current amplitude ([2]; 200 μM FFA, 50 ms prepulse to −70 mV, test pulse to −10 mV, 15 nucleated patches): −183.6±21.7 pA
Na+ channel activation mid-point potential ([2]; 200 μM FFA, Boltzmann raised to third power): −11.3±1.36 mV
shift in voltage dependence of inactivation ([2]; 50 ms prepulse): ~12 mV
steady-state inactivation mid-point potential ([2]; 50 ms prepulse, in FFA): −67.8±1.4 mV
steady-state inactivation slope factor ([2]; 50 ms prepulse, in FFA): 10.7±0.5 mV
steady-state inactivation mid-point potential ([2]; 200 ms prepulse, in FFA): −74.1±2.6 mV
steady-state inactivation slope factor ([2]; 200 ms prepulse, in FFA): 8.9±1.0 mV
sodium channel inactivation Boltzmann function half point [2, 5]: −89.7 mV
sodium channel inactivation Boltzmann slope [2, 5]: 9.1 mV
time constant of inactivation onset ([2]; at 0 mV, in FFA (0.2 mM)): 0.70 ± 0.03 ms
fraction of sodium channels available for activation ([2]; at −70 mV, in FFA): 0.57±0.04
effect on the sodium channel activation curve ([2]; hippocampal pyramidal neurons): No significant effect; also recorded: only minimal effect
effect on spikes and burst firing ([3]; 4-AP slice epilepsy model, bath application of FFA): dramatically reduced both the total number of spikes and bursting; also recorded: completely abolishes burst firing
interspike interval (ISI) ratio ([3]; 120 pA current injection, 4-AP, FFA 0.2 mM): 0.74±0.06
effect on epileptiform discharges ([4]; 50 μM FFA, 4AP treated slice): small reduction in the amplitude of individual events
effect on epileptiform discharges ([4]; 100 μM FFA, 4AP treated slice): strongly reduced the discharge frequency
effect on epileptiform discharges ([4]; 200 μM FFA, 4AP 50 μM): completely and reversibly inhibited the epileptiform discharges; also recorded: completely abolished the discharges
antiepileptic effect, concentration dependence ([4]; 4AP treated slices, 50-200 μM): clear dose-dependent effect; also recorded: potent, concentration dependent, antiepileptic effect
